In brackets after ≈: the same amount, converted by molar mass.
Key:
[1] = tested on: MDA-MB231; assay: Cell vitality by Trypan Blue/Countess, MDA-MB231 under normoxia; type: cell-based; details: Homo sapiens, MDA-MB-231, 24 hours
Method: Human breast cancer cell lines T47-D and MDA-MB231, human colorectal adenocarcinoma line HT-29, human prostate cancer line DU145, human uterine cervix carcinoma cell line HeLa, human hepatocarcinoma cell line HepG2 (ATCC, American Type Culture Collection) were cultivated in DMEM (BioWhittaker, Cambrex Bio Science, Belgium) in a 5% CO2 atmosphere at 37° C.
(§1) Cell vitality was assessed with a 0.4% Trypan Blue exclusion test, using an automated Countess cell counter (Life Technologies™).
The model created appears adapted for the study of plant extracts to be used in association with the classic chemotherapeutic agents. Then cells were treated with doxorubicin, with plant extracts or with their association, and cell vitality was analysed by Trypan Blue/Countess Invitrogen as described in the annexed Materials and Methods. The following treatments were performed:
MDA-MB231 cells cultivated under normoxia and under chronic hypoxia were treated for 24 hours with various concentrations of doxorubicin, elective drug in the treatment of breast cancer.

[2] = in vitro; type: cell-based, human; details: human
Method: (§2) To establish a chronic hypoxia model, the above cell lines were cultivated in DMEM with 10% FBS in 5% CO2 and 1% O2 atmosphere, balanced with N using a multigas incubator (Ruskinn C300, Ruskinn Technology Ltd., Bridgend, United Kingdom). Cells survived through each cell passage were selected and cultivated with reoxygenation and hypoxia cycles for at least 3 months and up to 6 months.
as §1
(§3) In order to re-create a state of chronic hypoxia, present in the interior of a solid tumour, all cell lines indicated in the table above were cultivated for some months in the Ruskin Cabinet at 37° C., under a 1% O2 atmosphere. The medium was changed every three days so as to eliminate dead cells, and approximately every 10-15 days the cells were placed in the incubator under normoxia conditions for 24 hours.
(§4) Among all cells analysed, only MDA-MB231 cell line adapted to the hypoxic environment and survived. […]
(§5) The model created appears adapted for the study of plant extracts to be used in association with the classic chemotherapeutic agents. Then cells were treated with doxorubicin, with plant extracts or with their association, and cell vitality was analysed by Trypan Blue/Countess Invitrogen as described in the annexed Materials and Methods. […]

[3] = tested on: ChR-MDA-MB231; assay: cells; type: cell-based, human; details: Homo sapiens; chMDAMB231, chronic hypoxia; 24 hours; read-out: EC50 cell vitality
Method: as §2, §1, §3, §4, §5

[4] = molecular target: T1, STAT3 (Homo sapiens, UniProt P40763); assay: Modulation of the STAT3 pathway in KARPAS cells (Western Blot, EMSA); type: cell-based; details: extract 200 μg/ml (0.181% cynaropicrin) 2-4 hours, cynaropicrin 25 μM
Method: (§6) The cells were lysed in ice for 30 min in lysis buffer NP40 (50 mM Tris-HCl pH 7.4, 150 mM NaCl, 1% NP-40, 1 mM EGTA, 1 mM EDTA) complemented with inhibitors of protease and phosphatase (5 mM PMSF, 3 mM NaF, 1 mM DTT, 1 mM NaVO4). Equal amounts of total extracts of protein (30 μg) were broken down by means of denaturing electrophoresis (SDS-PAGE) in 8% polyacrylamide gel and transferred for 2 hours on nitrocellulose membrane. The membranes were blocked with a 5% solution of milk dissolved in TBS-Tween_20 0.05% for 1 hour and incubated with the specific primary antibodies. The following primary antibodies were used: anti-beta actin (A-2228, SIGMA), anti-pSTAT3 (Tyr-705) (sc8059, Santa Cruz) and anti-STAT3 (sc7179, Santa Cruz). The secondary antibodies were peroxidase-conjugated (Santa Cruz), and ECL reagents (Amersham, GE Healthcare, Piscataway, N.J., USA) were used for the chemiluminescence.
(§7) 200 μg/ml of extract that contains 0.181% of cynaropricrin contain 1.2 μM of cynaropricrin.

[5] = tested on: confluent prostatic adenocarcinoma cell line DU145; assay: WST-1 cell vitality assay, confluent DU145 (high levels of constitutively activated STAT3); type: cell-based, human
Method: FIG. 7 Assay of cell vitality in the confluent prostatic adenocarcinoma cell line DU145, treated with various concentrations of artichoke extract (50-600 μg/ml) for various treatment times (24 and 48 hours) with indications of the content in cynaropicrin of the extract. The confluency of the cells increases the levels of constitutively activated STAT3, making the cells themselves largely resistant to death. The vitality was analysed using the WST-1 assay (WST-1 test, see the experimental section for the conditions). […] The squares show the trend over 24 hours and the circles show the trend at 48 hours with extract doses from 0 to 600 μg/ml and the respective content in cynaropicrin, expressed both in μg/ml and in μM, of the extract at the various concentrations (100, 200, 300, 400, 500, 600 μg/ml).
FIG. 8. […] The vitality was analysed using the WST-1 assay (WST-1 test, see the experimental section for the conditions). […]
Cytotoxicity was assayed using the WST assay (WSTs=water soluble tetrazolium salts) which utilises the ability of mitochondrial dehydrogenases to separate the tetrazole ring from the yellow-coloured WST molecule (tetrazolium salt) to give an orange formazan salt. The amount of formazan produced following the treatment of the cells with the substances being tested is measured using spectrophotometry and is proportional to the number of living cells. […]

[6] = tested on: human carcinoma cells DU145; assay: WST-1 cell vitality in co-treatment with chemotherapeutic agents, DU145; type: cell-based
Method: Cytotoxicity was assayed using the WST assay (WSTs=water soluble tetrazolium salts) which utilises the ability of mitochondrial dehydrogenases to separate the tetrazole ring from the yellow-coloured WST molecule (tetrazolium salt) to give an orange formazan salt. The amount of formazan produced following the treatment of the cells with the substances being tested is measured using spectrophotometry and is proportional to the number of living cells. WST-1 and in particular WST-8 (2-(2-methoxy-4-nitrophenyl)-3-(4-nitrophenyl)-5-(2,4-disulfophenyl)-2H-tetrazolium) are advantageous with respect to MTT because they reduce outside the cells, in combination with PMS as electron mediator, to produce water-soluble formazan.
The assays were carried out in parallel with variable doses of cynaropicrin in place of the extract, to compare the efficacy of the extract and that of cynaropicrin.

[7] = tested on: GSH; assay: Intracellular analysis of GSH (colorimetric); type: cell-based; details: cynaropicrin 12.5, 25, 50 μM
Method: The intracellular concentration of GSH was evaluated by means of a colorimetric method. The cell extract, deproteinised by means of 10% trichloroacetic acid, was treated with dithio nitrobenzene (DTNB), and the quantity of TNB, which is released following the reaction with GSH, was evaluated by analysing the absorbance at 412 nm.

[8] = tested on: STAT3; assay: Glutathionylation of STAT3; type: cell-based; details: cynaropicrin 12 microM, 25 μM
Method: STAT3 was immunoprecipitated by incubating the protein cell extract overnight with an anti-STAT3 antibody. The proteins obtained were separated by means of SDS-PAGE in non-reducing conditions and were transferred on PVDF membrane. The glutathionylated STAT3 was recognised using an anti-GSH antibody.

[9] = molecular target: T1, STAT3; assay: Modulation of the STAT3 pathway in DU145 cells (Western Blot, EMSA); type: cell-based; design: The cell line DU145 expresses pStat3 in a constitutive manner; endogenous in cells; host or cells: DU145 (human prostate carcinoma, ATCC HTB-81); details: extract 200 μg/ml (0.181% cynaropicrin) 2-4 hours, cynaropicrin 25 μM
Method: as §6, §7

T1 sequence (P40763 whole entry): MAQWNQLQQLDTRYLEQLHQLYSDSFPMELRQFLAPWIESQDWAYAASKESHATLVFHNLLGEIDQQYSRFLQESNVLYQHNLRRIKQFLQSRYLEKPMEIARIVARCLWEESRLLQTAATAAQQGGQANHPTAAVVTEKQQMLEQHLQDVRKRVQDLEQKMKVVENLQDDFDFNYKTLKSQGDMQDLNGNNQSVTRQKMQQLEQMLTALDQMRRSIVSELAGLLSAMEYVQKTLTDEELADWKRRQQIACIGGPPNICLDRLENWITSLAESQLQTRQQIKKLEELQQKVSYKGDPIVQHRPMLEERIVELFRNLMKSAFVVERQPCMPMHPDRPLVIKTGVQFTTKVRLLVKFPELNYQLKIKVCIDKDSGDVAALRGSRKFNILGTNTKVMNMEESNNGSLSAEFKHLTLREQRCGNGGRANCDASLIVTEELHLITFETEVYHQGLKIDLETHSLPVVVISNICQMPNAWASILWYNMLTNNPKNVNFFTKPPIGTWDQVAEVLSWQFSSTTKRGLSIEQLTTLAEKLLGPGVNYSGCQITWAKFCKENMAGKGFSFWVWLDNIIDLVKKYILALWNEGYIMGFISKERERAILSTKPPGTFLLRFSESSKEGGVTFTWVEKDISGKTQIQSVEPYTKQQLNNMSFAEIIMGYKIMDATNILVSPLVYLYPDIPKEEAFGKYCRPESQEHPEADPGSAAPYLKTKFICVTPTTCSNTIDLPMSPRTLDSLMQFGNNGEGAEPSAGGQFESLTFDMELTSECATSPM

Row | Structure (SMILES) | EC50 [1] [mg/L] | mortality at 0.25 ug/ml [2] [%] | EC50 [3] [mg/L] | binding of STAT3 to DNA (EMSA) [4] | phosphorylation of STAT3 (Western Blot) [4] | cell vitality (WST-1) ([5]; 24 and 48 hours, extract 50-600 μg/ml, cynaropicrin 0-70 μM) | concentration of cynaropicrin for reduction of vitality equal to approximately 90% ([5]; 48 hours, cynaropicrin alone) [µM] | molarity of cynaropicrin necessary to reduce cell vitality below 20%, relative to that present in the artichoke extract ([6]; with cisplatinum 15 μg/ml) | molarity of cynaropicrin necessary to reduce cell vitality below 20%, relative to that present in the artichoke extract ([6]; with doxorubicin 2 μg/ml) | intracellular concentration of GSH [7] | glutathionylation of STAT3 [8] | binding of STAT3 to DNA (EMSA) [9] | phosphorylation of STAT3 (Western Blot) [9]
1 | COc1cccc2c1C(=O)c1c(O)c3c(c(O)c1C2=O)C[C@@](O)(C(=O)CO)C[C@@H]3O[C@H]1C[C@H](N)[C@H](O)[C@H](C)O1 [doxorubicin] | 0.25 (≈ 0.46 µM) | 20 | 1 (≈ 1.84 µM) | – | – | – | – | – | – | – | – | – | –
2 | C=C(CO)C(=O)O[C@H]1CC(=C)[C@@H]2C[C@H](O)C(=C)[C@@H]2[C@H]2OC(=O)C(=C)[C@@H]21 [cynaropicrin] | – | – | – | inhibits the binding of STAT3 to DNA | inhibits the phosphorylation of STAT3 | inhibits cell vitality in a time-dependent and dose-dependent manner | 50 | forty times greater | approximately twenty-five times greater | time-dependent and dose-dependent reduction of the intracellular concentration of GSH | determines the glutathionylation of STAT3 | inhibit the binding of STAT3 to DNA | inhibit the phosphorylation of STAT3

Reference: US20170340688A1, “TITRATED EXTRACTS OF CYNARA SCOLYMUS AND USES THEREOF” (priority 2014, published 2017)
